Reference: patent US12642768B2, “Lipid nanoparticles” (Beijing Jitai Life Sciences Ltd, priority 2022, dated 2026)

Tested on: not listed separately
Test: Particle size and PDI of lipid nanoparticles by dynamic light scattering
Format: physicochemical
Settings: LNP 50:38.5:10:1.5, N/P 6, luciferase mRNA
Protocol: (§1) Lipid nanoparticles were prepared by (1) dissolving and mixing ionizable lipid compounds, cholesterol, phospholipids and polyethylene glycolated lipids in ethanol at (molar percentages) 50%, 38.5%, 10% and 1.5%, respectively; (2) dissolving the mRNA active ingredient in 25 mM sodium acetate solution (pH=4.5); (3) using an automated high-throughput microfluidic system to mix the organic phase containing the lipid mixture and the aqueous phase containing the mRNA component in the flow ratio range of 1:1 to 1:4 at a mixing speed of 10 mL/min to 18 mL/min; (4) the prepared lipid nanoparticles (N/P ratio of 6) were diluted with phosphate buffer solution and the nanoparticle solutions were ultrafiltered to the original preparation volume using ultrafiltration tubes (purchased from Millipore) with a cut-off molecular weight of 30 kDa; and (5) the obtained nanoparticles were filtered through a sterile 0.2 μm filter membrane and then stored in a sealed glass vial at low temperature.
The particle size and particle size dispersity index (PDI) of the prepared lipid nanoparticles were measured using a Zetasizer Pro (purchased from Malvern Instruments Ltd) and a DynaPro NanoStar (purchased from Wyatt) dynamic light scattering instrument. The degree of RNA encapsulation by lipid nanoparticles was characterized by the Encapsulation Efficiency %, which reflects the degree of binding of lipid nanoparticles to RNA fragments. This parameter was measured by the method of Quant-it™ RiboGreen RNA Assay (purchased from Invitrogen). Lipid nanoparticle samples were diluted in TE buffer (10 mM Tris-HCl, 1 mM EDTA, pH=7.5). A portion of the sample solution was removed, to which 0.5% Triton (Triton X-100) was added, and then allowed to stand at 37° C. for 30 minutes. Immediately after the addition of RIBOGREEN® reaction solution, the fluorescence values were read on a Varioskan LUX multifunctional microplate reader (purchased from Thermofisher) at 485 nm for absorption and 528 nm for emission to give the encapsulation efficiency values.

| Structure (SMILES) | Particle size dispersity (PDI) |
| --- | --- |
| CCCCCCCCCOC(=O)C(C)(C)CCCCCC(CCCCCC(C)(C)C(=O)OCC(CCCCC)CCCCCCC)OC(=O)CC1CCN(CCO)CC1 (centres unmarked) [Compound 114] | 0.04 |
| CCCCCCCCCOC(=O)CC(C)(C)CCCCC(CCCCC(C)(C)CC(=O)OCCCCCCCCC)OC(=O)CCCN(C)C [Compound 97] | 0.25 |
| CCCCCCCCCCOC(=O)C(C)(C)CCCCCC(CCCCCC(C)(C)C(=O)OCCCCCCCCCC)OC(=O)CCN1CCCC1 [Compound 92] | 0.05 |
| CCCCCCCCCOC(=O)C(C)(C)CCCCCC(CCCCCC(C)(C)C(=O)OCC(CCCCC)CCCCCCC)OC(=O)CC1CCN(C)CC1 (centres unmarked) [Compound 111] | 0.06 |
| CCCCCCCCCSC(=O)C(C)(C)CCCCCC(CCCCCC(C)(C)C(=O)SCCCCCCCCC)OC(=O)CC1CCN(C)CC1 [Compound 108] | 0.05 |
| CCCCCCCCCOC(=O)C(C)(C)CCCCCC(CCCCCC(C)(C)C(=O)OCCCCCCCCC)OC(=O)CC1CCN(CCO)CC1 [Compound 113] | 0.03 |
| CCCCCCCC(CCCCCCC)COC(=O)CCC(C)(C)CCCC(CCCC(C)(C)CCC(=O)OCC(CCCCCCC)CCCCCCC)OC(=O)CCCN(C)C [Compound 129] | 0.06 |
| CCCCCCCCCOC(=O)C(C)(C)CCCCCC(CCCCCC(C)(C)C(=O)OCC(CCCCC)CCCCCCC)OC(=O)CCCN(C)C (centres unmarked) [Compound 46] | 0.09 |
| CCCCCCCC#CCOC(=O)C(C)(C)CCCCCC(CCCCCC(C)(C)C(=O)OCCCC(CCCCC)CCCCC)OC(=O)CCCN(C)C (centres unmarked) [Compound 115] | 0.04 |
| CCCCCCCCCCSC(=O)C(C)(C)CCCCCC(CCCCCC(C)(C)C(=O)OCCCCCCCCC)OC(=O)CCCN(C)C (centres unmarked) [Compound 40] | 0.05 |
| CCCCCCCCCOC(=O)CCCCCCC(CCCCCCC(=O)OCC(CCCCC)CCCCCCC)OC(=O)CCCN(C)C (centres unmarked) [D2, reference compound] | 0.20 |
| CCCCC/C=C\C/C=C\CCCCCCCCC(CCCCCCCC/C=C\C/C=C\CCCCC)OC(=O)CCCN(C)C [DLin-MC3-DMA, reference compound] | 0.04 |
| CCCCCCCCCSC(=O)C(C)(C)CCCCCC(CCCCCC(C)(C)C(=O)OCC#CCCC(CCCC)CCCC)OC(=O)CCCN(C)C (centres unmarked) [Compound 119] | 0.05 |
| CCCCCCCCCSC(=O)C(C)(C)CCCCCC(CCCCCC(C)(C)C(=O)SCCCCCCCCC)OC(=O)CC1CCN(CCO)CC1 [Compound 110] | 0.01 |
| CCCCCCCCCOC(=O)C(C)(C)CCCCCC(CCCCCC(C)(C)C(=O)OCCCCCCCCC)OC(=O)C1CCN(C(C)C)CC1 [Compound 103] | 0.04 |
| CCCCCCCCCSC(=O)C(C)(C)CCCCCC(CCCCCC(C)(C)C(=O)SCCCCCCCCC)OC(=O)C1CCN(C(C)C)CC1 [Compound 107] | 0.05 |
| CCCCCCCCCCOC(=O)C(C)(C)CCCCCC(CCCCCC(C)(C)C(=O)OCCCCCCCCCC)OC(=O)CCN1CCOCC1 [Compound 90] | 0.05 |
| CCCCCCCC#CCOC(=O)C(C)(C)CCCCCC(CCCCCC(C)(C)C(=O)OCC(CCCCC)CCCCCCC)OC(=O)CCCN(C)C (centres unmarked) [Compound 116] | 0.05 |
| CCCCCCC/C=C\COC(=O)CC(C)(C)CCCCC(CCCCC(C)(C)CC(=O)OCC(CCCCC)CCCCCCC)OC(=O)CCCN(C)C (centres unmarked) [Compound 98] | 0.13 |
| CCCCCCCCCCSC(=O)C(C)(C)CCCCCC(CCCCCC(C)(C)C(=O)SCCCCCCCCCC)OC(=O)C1CCN(C)CC1 [Compound 104] | 0.06 |

| Structure (SMILES) | Particle size dispersity (PDI) |
| --- | --- |
| CCCCCCC#CCOC(=O)C(C)(C)CCCCCC(CCCCCC(C)(C)C(=O)OCCCCCCCCC)OC(=O)CCCN(C)C (centres unmarked) [Compound 42] | 0.07 |
| CCCCCCCCCCSC(=O)C(C)(C)CCCCCC(CCCCCC(C)(C)C(=O)SCCCCCCCCCC)OC(=O)C1CCN(C(C)C)CC1 [Compound 105] | 0.05 |
| CCCCCCC(CCCCCC)CCOC(=O)CCC(C)(C)CCCC(CCCC(C)(C)CCC(=O)OCCC(CCCCCC)CCCCCC)OC(=O)CCCN(C)C [Compound 128] | 0.05 |
| CCCCCCCCCOC(=O)C(C)(C)CCCCCC(CCCCCC(C)(C)C(=O)OCCCCCCCCC)OC(=O)C1CCN(C)CC1 [Compound 102] | 0.03 |
| CCCCCCCCCCOC(=O)C(C)(C)CCCCC(CCCCC(C)(C)C(=O)OCC(CCCCC)CCCCCCC)OC(=O)CCCN(C)C (centres unmarked) [Compound 123] | 0.05 |
| CCCCCCCCCOC(=O)C(C)(C)CCCCC(CCCCC(C)(C)C(=O)OCC(CCCCC)CCCCCCC)OC(=O)CCCN(C)C (centres unmarked) [Compound 122] | 0.07 |
| CCCCCCCCCOC(=O)C(C)(C)CCCCCCC(CCCCCCC(C)(C)C(=O)OCC(CCCCC)CCCCCCC)OC(=O)CCCN(C)C (centres unmarked) [Compound 125] | 0.07 |
| CCCCCCCCCOC(=O)CCCCCCC(CCCCCCC(=O)OCCCCCCCCC)OC(=O)CCCN(C)C [D1, reference compound] | 0.18 |
| CCCCCCCCCSC(=O)C(C)(C)CCCCCC(CCCCCC(C)(C)C(=O)SCCCCCCCCC)OC(=O)CC1CCN(CC)CC1 [Compound 109] | 0.06 |
| CCCCCCCCCOC(=O)C(C)(C)CCCCCC(CCCCCC(C)(C)C(=O)SCCCCCCCCC)OC(=O)CCCN(C)C (centres unmarked) [Compound 41] | 0.05 |
| CCCCCCCCCSC(=O)C(C)(C)CCCCCC(CCCCCC(C)(C)C(=O)SCCCCCCCCC)OC(=O)C1CCN(C)CC1 [Compound 106] | 0.05 |
| CCCCCCCCCCOC(=O)C(C)(C)CCCCCC(CCCCCC(C)(C)C(=O)OCCCCCCCCCC)OC(=O)CN1CCOCC1 [Compound 91] | 0.05 |
| CCCCCCCCCOC(=O)C(C)(C)CCCCCC(CCCCCC(C)(C)C(=O)OCC#CC(CCCCCC)CCCCCC)OC(=O)CCCN(C)C (centres unmarked) [Compound 118] | 0.07 |
| CCCCC(CC#CCOC(=O)C(C)(C)CCCCCC(CCCCCC(C)(C)C(=O)OCC#CCC(CCCC)CCCC)OC(=O)CCCN(C)C)CCCC [Compound 117] | 0.06 |
| CCCCCCCCCCOC(=O)C(C)(C)CCCCCC(CCCCCC(C)(C)C(=O)OCCCCCCCCCC)OC(=O)C1CCN(C)CC1 [Compound 99] | 0.05 |
| CCCCCCCCOC(=O)C(C)(C)CCCCCC(CCCCCC(C)(C)C(=O)OCCCCCCCC)OC(=O)C1CCN(C(C)C)CC1 [Compound 101] | 0.06 |
| CC(C)CCCCCCCOC(=O)CCC(C)(C)CCCC(CCCC(C)(C)CCC(=O)OCCCCCCCC(C)C)OC(=O)CCCN(C)C [Compound 127] | 0.05 |
| CCCCCCCCCSC(=O)C(C)(C)CCCCCC(CCCCCC(C)(C)C(=O)OCC(CCCCC)CCCCCCC)OC(=O)CC1CCN(C)CC1 (centres unmarked) [Compound 112] | 0.08 |
| CCCCCCCCOC(=O)C(C)(C)CCCCCC(CCCCCC(C)(C)C(=O)OCCCCCCCC)OC(=O)C1CCN(C)CC1 [Compound 100] | 0.07 |
| CCCCCCCCCOC(=O)C(C)(C)CCCCCCC(CCCCCCC(C)(C)C(=O)OCC(CCCCC)CCCCCCC)OC(=O)CCCCN(C)C (centres unmarked) [Compound 126] | 0.06 |

Same assay, conditions: LNP ionizable lipid:cholesterol:DSPC:DMG-PEG2000 50:38.5:10:1.5, N/P 6, luciferase mRNA

| Structure (SMILES) | Particle size (nm) |
| --- | --- |
| CCCCCCCCCSC(=O)C(C)(C)CCCCCC(CCCCCC(C)(C)C(=O)OCC#CCCC(CCCC)CCCC)OC(=O)CCCN(C)C (centres unmarked) [Compound 119] | 80.98 nm |

Tested on: C57BL/6 mice
Test: Animal experiment: in vivo bioluminescence after i.v. lipid nanoparticles encapsulated with luciferase mRNA
Settings: compound 20 vs. D1, compound 46 vs. D2
Protocol: The delivery effect and safety of nanoparticles encapsulated with luciferase mRNA (Trilink, L-7202) in mice were evaluated. The test mice were SPF-grade C57BL/6 mice, female, 6-8 weeks old, weighing 18-22 g, and were purchased from SPF (Beijing) Biotechnology Co., Ltd. All animals were acclimatized for more than 7 days prior to the experiment, and had free access to food and water during the experiment. The conditions include alternating light and dark for 12/12 h, the indoor temperature of 20-26° C. and the humidity of 40-70%. The mice were randomly grouped. […] The anesthetized mice were placed in IVIS for fluorescence imaging, and data acquisition and analysis were performed on the concentrated distribution area of fluorescence.
The in vivo delivery efficiency of lipid nanoparticle carriers was expressed as the mean values of fluorescence intensity and total photon count in different animals within the same subject group, as shown in Table 5. Higher values of fluorescence intensity and total photon count indicate higher in vivo delivery efficiency of this mRNA fragment by lipid nanoparticles. […]

| Structure (SMILES) | in vivo delivery efficiency compared with the molecule without tetramethyl |
| --- | --- |
| CCCCCCCCCOC(=O)C(C)(C)CCCCCC(CCCCCC(C)(C)C(=O)OCC(CCCCC)CCCCCCC)OC(=O)CCCN(C)C (centres unmarked) [Compound 46] | significantly increased in vivo delivery efficiency |

Tested on: not listed separately
Test: Encapsulation efficiency by Quant-it RiboGreen RNA Assay
Format: physicochemical
Settings: LNP 50:38.5:10:1.5, N/P 6, luciferase mRNA
Protocol: as §1
The particle size and particle size dispersity index (PDI) of the prepared lipid nanoparticles were measured using a Zetasizer Pro (purchased from Malvern Instruments Ltd) and a DynaPro NanoStar (purchased from Wyatt) dynamic light scattering instrument. […] This parameter was measured by the method of Quant-it™ RiboGreen RNA Assay (purchased from Invitrogen). […]

| Structure (SMILES) | Encapsulation efficiency (%) |
| --- | --- |
| CCCCC/C=C\C/C=C\CCCCCCCCC(CCCCCCCC/C=C\C/C=C\CCCCC)OC(=O)CCCN(C)C [DLin-MC3-DMA, reference compound] | 95.62% |
| CCCCCCCCCSC(=O)C(C)(C)CCCCCC(CCCCCC(C)(C)C(=O)OCC#CCCC(CCCC)CCCC)OC(=O)CCCN(C)C (centres unmarked) [Compound 119] | 86.92% |
